Measured values published in ChEMBL document CHEMBL6177962, “Design, synthesis and biological evaluation of 2-arylbenzo[b]furan-4-vinylcarbonyl derivatives based on Salvianolic acid C as antioxidant neuroprotective agents for the treatment of ischemic stroke” (Eur J Med Chem, 2025).
Active and inactive are the calls of the source. The calls are words filed in the database; no cut-off is given here.

Tests used:
Rattus norvegicus [1] = experiment: In vivo activation of Nrf2 pathway in MCAO induced rat model assessed as increase in NRF2 level in nucleus at 5 to 20 mg/kg, iv by Western blot analysis; format: functional, organism-based; conditions: dose 5-20 mg/kg
PC-12 [2] = experiment: Neuroprotective activity against t-BHP induced oxidative damage in rat PC12 cells model assessed as cell viability at 10 uM incubated for 24 hrs by CCK-8 assay relative to control; format: functional; conditions: read-out: Activity
PC-12 [3] = experiment: Cytotoxicity against rat PC12 cells assessed as cell viability at 40 uM incubated for 24 hrs by CCK-8 assay relative to control; format: functional; conditions: read-out: Activity
Rattus norvegicus [4] = experiment: Neuroprotective activity against cerebral ischemia-reperfusion injury in MCAO rat model assessed as decrease in apoptotic cells in cerebral brain at 10 mg/kg, iv treated after 2 hrs ischemia followed by reperfusion measured after 1 week of post-reperfusion by TUNEL staining based analysis; format: functional, organism-based; conditions: time 1.0 weeks
PC-12 [5] = experiment: Neuroprotective activity against t-BHP induced oxidative damage in rat PC12 cells model assessed as decrease in MDA level at 10 uM incubated for 24 hrs; format: functional, cell-based
PC-12 [6] = experiment: Neuroprotective activity against t-BHP induced oxidative damage in rat PC12 cells model assessed as reduction in intracellular ROS level at 10 uM incubated for 24 hrs by DCFH-DA probe based analysis; format: functional, cell-based
PC-12 [7] = experiment: Neuroprotective activity against t-BHP induced oxidative damage in rat PC12 cells model assessed as reduction in intracellular ROS level at 2.5 to 10 uM incubated for 24 hrs by DCFH-DA probe based flow cytometry analysis; format: functional, cell-based; conditions: dose 2.5-10 µM
Rattus norvegicus [8] = experiment: Upregulation of NRF2 level in MCAO rat model at 5 to 20 mg/kg, iv by Western blot analysis; format: functional, organism-based; conditions: dose 5-20 mg/kg
Rattus norvegicus [9] = experiment: Neuroprotective activity against cerebral ischemia-reperfusion injury in MCAO rat model assessed as decrease in apoptotic cells in cerebral brain at 20 mg/kg, iv treated after 2 hrs ischemia followed by reperfusion measured after 1 week of post-reperfusion by TUNEL staining based analysis; format: functional, organism-based; conditions: time 1.0 weeks
Rattus norvegicus [10] = experiment: Neuroprotective activity against cerebral ischemia-reperfusion injury in MCAO rat model assessed as decrease in apoptotic cells in cerebral brain at 5 mg/kg, iv treated after 2 hrs ischemia followed by reperfusion measured after 1 week of post-reperfusion by TUNEL staining based analysis; format: functional, organism-based; conditions: time 1.0 weeks
PC-12 [11] = experiment: Antioxidant activity in t-BHP -induced rat PC12 cells at 2.5 to 20 uM; format: functional, cell-based; conditions: dose 2.5-20 µM
PC-12 [12] = experiment: Cytotoxicity against rat PC12 cells assessed as cell viability at 10 uM incubated for 24 hrs by CCK-8 assay relative to control; format: functional; conditions: read-out: Activity
Rattus norvegicus [13] = experiment: Neuroprotective activity against cerebral ischemia-reperfusion injury in MCAO rat model assessed as reduction in infarct area at 20 mg/kg, iv treated after 2 hrs ischemia followed by reperfusion measured after 1 week of post-reperfusion by TTC staining based analysis; format: functional, organism-based; conditions: time 1.0 weeks
Rattus norvegicus [14] = experiment: In vivo activation of Nrf2 pathway in MCAO induced rat model assessed as increase in NRF2 level in brain at 5 to 20 mg/kg, iv by immunofluorescence analysis; format: functional, organism-based; conditions: dose 5-20 mg/kg
PC-12 [15] = experiment: Downregulation of KEAP1 expression in rat PC12 cells at 10 uM incubated for 3 hrs by Western blot analysis; format: functional, cell-based
Rattus norvegicus [16] = experiment: […] of HO-1 level rat model at 5 to 20 mg/kg, iv by Western blot analysis; format: functional, organism-based; conditions: dose 5-20 mg/kg
PC-12 [17] = experiment: Neuroprotective activity against t-BHP induced oxidative damage in rat PC12 cells model assessed as decrease in MDA level at 2.5 uM incubated for 24 hrs; format: functional, cell-based
Rattus norvegicus [18] = experiment: Neuroprotective activity against cerebral ischemia-reperfusion injury in MCAO rat model assessed as reduction in ROS accumulation in cortex at 5 to 20 mg/kg, iv treated after 2 hrs ischemia followed by reperfusion measured after 1 week of post-reperfusion by dihydroethidium staining based fluorescence microscopic analysis; format: functional, organism-based; conditions: dose 5-20 mg/kg, time 1.0 weeks
PC-12 [19] = experiment: Neuroprotective activity against t-BHP induced oxidative damage in rat PC12 cells model assessed as decrease in MDA level at 5 uM incubated for 24 hrs; format: functional, cell-based
Rattus norvegicus [20] = experiment: In vivo activation of Nrf2 pathway in MCAO induced rat model assessed as increase in NRF2 level in cytoplasm at 5 to 20 mg/kg, iv by Western blot analysis; format: functional, organism-based; conditions: dose 5-20 mg/kg
[21] = Metabolic stability in rat liver microsome assessed as parent compound remaining after 60 mins; format: ADME; conditions: liver microsomes, read-out: Stability
[22] = target: Kelch-like ECH-associated protein 1 (Rattus norvegicus) (UniProt P57790); experiment: Binding affinity to KEAP1 in rat PC12 cells assessed as thermal stabilization at 10 uM incubated for 3 hrs at 4 degreeC by CETSA; format: cell-based
PC-12 [23] = experiment: Neuroprotective activity against t-BHP induced oxidative damage in rat PC12 cells model assessed as increase in NRF2 level incubated for 24 hrs by Western blot analysis; format: functional, cell-based; conditions: dose 2.5-10 µM
PC-12 [24] = experiment: Neuroprotective activity against t-BHP induced oxidative damage in rat PC12 cells model assessed as cell viability at 2.5 to 20 uM incubated for 24 hrs by CCK-8 assay; format: functional, cell-based; conditions: dose 2.5-20 µM
PC-12 [25] = experiment: Neuroprotective activity against t-BHP induced oxidative damage in rat PC12 cells model assessed as attenuation of intracellular ROS level at 2.5 uM incubated for 24 hrs by DCFH-DA probe based analysis; format: functional, cell-based
Rattus norvegicus [26] = experiment: Neuroprotective activity against cerebral ischemia-reperfusion injury in MCAO rat model at 10 mg/kg, iv treated after 2 hrs ischemia followed by reperfusion measured after 1 week of post-reperfusion by barnes maze test; format: functional, organism-based; conditions: time 1.0 weeks
PC-12 [27] = experiment: Neuroprotective activity against t-BHP induced oxidative damage in rat PC12 cells model assessed as increase in SOD activity at 10 uM incubated for 24 hrs; format: functional, cell-based
Rattus norvegicus [28] = experiment: Neuroprotective activity against cerebral ischemia-reperfusion injury in MCAO rat model assessed as reduction in infarct area at 5 to 20 mg/kg, iv treated after 2 hrs ischemia followed by reperfusion measured after 1 week of post-reperfusion by TTC staining based analysis; format: functional, organism-based; conditions: dose 5-20 mg/kg, time 1.0 weeks
PC-12 [29] = experiment: Neuroprotective activity against t-BHP induced oxidative damage in rat PC12 cells model assessed as increase in HO-1 level incubated for 24 hrs by Western blot analysis; format: functional, cell-based; conditions: dose 2.5-10 µM
PC-12 [30] = experiment: Neuroprotective activity against t-BHP induced oxidative damage in rat PC12 cells model assessed as increase in SOD activity at 5 uM incubated for 24 hrs; format: functional, cell-based
PC-12 [31] = experiment: Neuroprotective activity against t-BHP induced oxidative damage in rat PC12 cells model assessed as attenuation of intracellular ROS level at 5 uM incubated for 24 hrs by DCFH-DA probe based analysis; format: functional, cell-based
[32] = Permeability of the compound across blood brain barrier in mouse BEND3 cells at 10 uM incubated for 24 to 48 hrs by HPLC analysis; format: ADME, cell-based; conditions: time 24-48 hrs, read-out: permeability
PC-12 [33] = experiment: Neuroprotective activity against t-BHP induced oxidative damage in rat PC12 cells model assessed as increase in SOD activity at 2.5 uM incubated for 24 hrs; format: functional, cell-based

Kelch-like ECH-associated protein 1 (Rattus norvegicus), sequence (P57790 whole entry): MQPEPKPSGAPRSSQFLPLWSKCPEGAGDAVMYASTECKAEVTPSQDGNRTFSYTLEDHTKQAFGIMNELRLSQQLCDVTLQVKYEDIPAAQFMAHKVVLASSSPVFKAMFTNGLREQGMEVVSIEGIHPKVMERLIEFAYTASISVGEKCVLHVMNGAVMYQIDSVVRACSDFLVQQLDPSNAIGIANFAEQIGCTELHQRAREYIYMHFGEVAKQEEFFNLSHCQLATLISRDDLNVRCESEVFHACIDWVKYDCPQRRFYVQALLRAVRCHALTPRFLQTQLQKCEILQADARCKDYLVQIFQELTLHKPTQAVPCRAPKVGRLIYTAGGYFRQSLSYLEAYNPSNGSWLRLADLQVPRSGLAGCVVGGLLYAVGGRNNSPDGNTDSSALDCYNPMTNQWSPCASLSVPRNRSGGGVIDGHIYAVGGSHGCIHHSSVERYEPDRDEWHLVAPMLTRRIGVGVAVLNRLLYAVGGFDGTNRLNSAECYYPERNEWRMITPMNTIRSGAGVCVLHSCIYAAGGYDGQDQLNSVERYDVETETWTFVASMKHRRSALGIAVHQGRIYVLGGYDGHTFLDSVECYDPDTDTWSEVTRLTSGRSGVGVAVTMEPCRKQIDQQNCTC

**Q.** Which Activity (Rattus norvegicus [1]) does the source give for COc1ccc(/C=C/C(=O)c2ccc(O)c(O)c2)c2cc(-c3ccc(C)cc3)oc12 here?
**A.** The Activity was “inactive”.

**Q.** And the viability at 10 µM (PC-12 [2])?
**A.** The viability at 10 µM was 95%.

**Q.** And the viability at 40 µM (PC-12 [3])?
**A.** The viability at 40 µM was 109%.

**Q.** What about the Activity (Rattus norvegicus [4]) of the same molecule?
**A.** Its Activity is “Active”.

**Q.** What about the Activity (PC-12 [5]) of the same molecule?
**A.** Its Activity is “Active”.

**Q.** What about the Activity (PC-12 [6]) of the same molecule?
**A.** Its Activity is “Active”.

**Q.** And the Activity (PC-12 [7])?
**A.** The Activity was “Active”.

**Q.** And the Activity (Rattus norvegicus [8])?
**A.** The Activity was “Active”.

**Q.** And the Activity (Rattus norvegicus [9])?
**A.** The Activity was “Active”.

**Q.** What about the Activity (Rattus norvegicus [10]) of the same molecule?
**A.** Its Activity is “Active”.

**Q.** And the Activity (PC-12 [11])?
**A.** Its Activity is “Active”.

**Q.** What about the viability at 10 µM (PC-12 [12]) of the same molecule?
**A.** The viability at 10 µM was 101%.

**Q.** And the Activity (Rattus norvegicus [13])?
**A.** The Activity was “Active”.

**Q.** And the Activity (Rattus norvegicus [14])?
**A.** The Activity was “Active”.

**Q.** What about the Activity (PC-12 [15]) of the same molecule?
**A.** The Activity was “Active”.

**Q.** What about the Activity (Rattus norvegicus [16]) of the same molecule?
**A.** The Activity was “Active”.

**Q.** And the Activity (PC-12 [17])?
**A.** The Activity was “Active”.

**Q.** And the Activity (Rattus norvegicus [18])?
**A.** Its Activity is “Active”.

**Q.** And the Activity (PC-12 [19])?
**A.** The Activity was “Active”.

**Q.** What about the Activity (Rattus norvegicus [20]) of the same molecule?
**A.** The Activity was “Active”.

**Q.** What about the remaining at 1 h [21] of the same molecule?
**A.** The remaining at 1 h was 63.8%.

**Q.** And the Activity [22]?
**A.** Its Activity is “Active”.

**Q.** And the Activity (PC-12 [23])?
**A.** Its Activity is “Dose-dependent-effect”.

**Q.** And the Activity (PC-12 [24])?
**A.** Its Activity is “Active”.

**Q.** What about the Activity (PC-12 [25]) of the same molecule?
**A.** The Activity was “Active”.

**Q.** What about the Activity (Rattus norvegicus [26]) of the same molecule?
**A.** The Activity was “Active”.

**Q.** And the Activity (PC-12 [27])?
**A.** The Activity was “Active”.

**Q.** And the Activity (Rattus norvegicus [28])?
**A.** The Activity was “Active”.

**Q.** What about the Activity (PC-12 [29]) of the same molecule?
**A.** The Activity was “Dose-dependent-effect”.

**Q.** And the Activity (PC-12 [30])?
**A.** Its Activity is “Active”.

**Q.** What about the Activity (PC-12 [31]) of the same molecule?
**A.** Its Activity is “Active”.

**Q.** What about the Papp at 10 µM [32] of the same molecule?
**A.** Its Papp at 10 µM is 7.46 ×10⁻⁶ cm/s.

**Q.** What about the Activity (PC-12 [33]) of the same molecule?
**A.** Its Activity is “Active”.
